≈ marks a conversion by molar mass, not a printed value. Calls of active or inactive are those of the source. The calls are words filed in the database; no cut-off is given here.
Experiments:
C6 [1] = experiment: Inhibition of DNA synthesis in rat C6 cells assessed as BrdU incorporation at IC50 after 24 hrs by ELISA; assay type: functional, cell-based
C6 [2] = experiment: Inhibition of DNA synthesis in rat C6 cells assessed as BrdU incorporation after 24 hrs by ELISA; assay type: functional, cell-based
C6 [3] = experiment: Cytotoxicity against rat C6 cells after 24 hrs by MTT assay; assay type: functional, cell-based; conditions: C6, 24 h
NIH3T3 = experiment: Cytotoxicity against mouse NIH/3T3 cells after 24 hrs by MTT assay; assay type: cell-based; conditions: NIH3T3, 24 h
C6 [4] = experiment: Cytotoxicity against rat C6 cells assessed as cell viability at 200 ug/ml after 24 hrs by MTT assay relative to control; assay type: functional; conditions: C6, 24 h, read-out: Activity
C6 [5] = experiment: Cytotoxicity against rat C6 cells assessed as cell viability at 100 ug/ml after 24 hrs by MTT assay relative to control; assay type: functional; conditions: C6, 24 h, read-out: Activity
C6 [6] = experiment: Cytotoxicity against rat C6 cells assessed as cell viability at 50 ug/ml after 24 hrs by MTT assay relative to control; assay type: functional; conditions: C6, 24 h, read-out: Activity
C6 [7] = experiment: Cytotoxicity against rat C6 cells assessed as cell viability at 25 ug/ml after 24 hrs by MTT assay relative to control; assay type: functional; conditions: C6, 24 h, read-out: Activity
C6 [8] = experiment: Cytotoxicity against rat C6 cells assessed as cell viability at 12 ug/ml after 24 hrs by MTT assay relative to control; assay type: functional; conditions: C6, 24 h, read-out: Activity
C6 [9] = experiment: Cytotoxicity against rat C6 cells assessed as cell viability at 6 ug/ml after 24 hrs by MTT assay relative to control; assay type: functional; conditions: C6, 24 h, read-out: Activity
Candida albicans = experiment: Antimicrobial activity against Candida albicans ATCC 22019 after 18 to 24 hrs by microbroth dilution method; assay type: functional
Fusarium culmorum = experiment: Antimicrobial activity against wild type Fusarium culmorum after 48 to 72 hrs by microbroth dilution method; assay type: functional
Fusarium verticillioides = experiment: Antimicrobial activity against Fusarium moniliforme NRRL 1866 after 48 to 72 hrs by microbroth dilution method; assay type: functional
Fusarium solani = experiment: Antimicrobial activity against Fusarium solani NRRL 13414 after 48 to 72 hrs by microbroth dilution method; assay type: functional
Aspergillus ochraceus = experiment: Antimicrobial activity against Aspergillus ochraceus NRRL 3174 after 48 to 72 hrs by microbroth dilution method; assay type: functional
Trichoderma harzianum = experiment: Antimicrobial activity against Trichoderma harzianum NRRL 20565 after 48 to 72 hrs by microbroth dilution method; assay type: functional
Penicillium chrysogenum = experiment: Antimicrobial activity against Penicillium chrysogenum NRRL 1951 after 48 to 72 hrs by microbroth dilution method; assay type: functional
Aspergillus parasiticus = experiment: Antimicrobial activity against Aspergillus parasiticus NRRL 465 after 48 to 72 hrs by microbroth dilution method; assay type: functional
Bacillus subtilis = experiment: Antimicrobial activity against Bacillus subtilis NRS-744 after 18 to 24 hrs by microbroth dilution method; assay type: functional
Micrococcus luteus = experiment: Antimicrobial activity against Micrococcus luteus NRLL B-4375 after 18 to 24 hrs by microbroth dilution method; assay type: functional
Pseudomonas aeruginosa = experiment: Antimicrobial activity against Pseudomonas aeruginosa […] after 18 to 24 hrs by microbroth dilution method; assay type: functional
Escherichia coli = experiment: Antimicrobial activity against Escherichia coli ATCC 25922 after 18 to 24 hrs by microbroth dilution method; assay type: functional
Listeria monocytogenes = experiment: Antimicrobial activity against Listeria monocytogenes ATCC 7644 after 18 to 24 hrs by microbroth dilution method; assay type: functional
Staphylococcus aureus = experiment: Antimicrobial activity against Staphylococcus aureus NRRL B-767 after 18 to 24 hrs by microbroth dilution method; assay type: functional

Cc1ccc(-c2cs/c(=N/NC(=O)CSc3nnc(C)s3)n2-c2ccccc2)cc1
inhibition (C6 [1]): Active
inhibition (C6 [2]): Dose-dependent effect
IC50 (C6 [3]): 25.3 µg/mL (≈ 55.8 µM)
IC50 (NIH3T3): 373 µg/mL (≈ 823 µM)
viability at 200 µg/mL (C6 [4]): 13.3%
viability at 100 µg/mL (C6 [5]): 31.5%
viability at 50 µg/mL (C6 [6]): 40.6%
viability at 25 µg/mL (C6 [7]): 50.1%
viability at 12 µg/mL (C6 [8]): 58.3%
viability at 6 µg/mL (C6 [9]): 65.9%
MIC (Candida albicans): 250 µg/mL (≈ 551 µM)
MIC (Fusarium culmorum): 250 µg/mL (≈ 551 µM)
MIC (Fusarium verticillioides): 250 µg/mL (≈ 551 µM)
MIC (Fusarium solani): 250 µg/mL (≈ 551 µM)
MIC (Aspergillus ochraceus): 250 µg/mL (≈ 551 µM)
MIC (Trichoderma harzianum): 250 µg/mL (≈ 551 µM)
MIC (Penicillium chrysogenum): 250 µg/mL (≈ 551 µM)
MIC (Aspergillus parasiticus): 250 µg/mL (≈ 551 µM)
MIC (Bacillus subtilis): 500 µg/mL (≈ 1100 µM)
MIC (Micrococcus luteus): 250 µg/mL (≈ 551 µM)
MIC (Pseudomonas aeruginosa): 250 µg/mL (≈ 551 µM)
MIC (Escherichia coli): 250 µg/mL (≈ 551 µM)
MIC (Listeria monocytogenes): 250 µg/mL (≈ 551 µM)
MIC (Staphylococcus aureus): 500 µg/mL (≈ 1100 µM)

O=C(CSc1nnnn1-c1ccccc1)N/N=c1/scc(-c2ccccc2)n1-c1ccccc1
inhibition (C6 [1]): Active
inhibition (C6 [2]): Dose-dependent effect
IC50 (C6 [3]): 8.3 µg/mL (≈ 17.1 µM)
IC50 (NIH3T3): 417 µg/mL (≈ 858 µM)
viability at 200 µg/mL (C6 [4]): 22.6%
viability at 100 µg/mL (C6 [5]): 35.8%
viability at 50 µg/mL (C6 [6]): 36.7%
viability at 25 µg/mL (C6 [7]): 42.5%
viability at 12 µg/mL (C6 [8]): 47.1%
viability at 6 µg/mL (C6 [9]): 52.1%
MIC (Candida albicans): 250 µg/mL (≈ 515 µM)
MIC (Fusarium culmorum): 125 µg/mL (≈ 257 µM)
MIC (Fusarium verticillioides): 250 µg/mL (≈ 515 µM)
MIC (Fusarium solani): 250 µg/mL (≈ 515 µM)
MIC (Aspergillus ochraceus): 250 µg/mL (≈ 515 µM)
MIC (Trichoderma harzianum): 125 µg/mL (≈ 257 µM)
MIC (Penicillium chrysogenum): 250 µg/mL (≈ 515 µM)
MIC (Aspergillus parasiticus): 250 µg/mL (≈ 515 µM)
MIC (Bacillus subtilis): 500 µg/mL (≈ 1030 µM)
MIC (Micrococcus luteus): 250 µg/mL (≈ 515 µM)
MIC (Pseudomonas aeruginosa): 250 µg/mL (≈ 515 µM)
MIC (Escherichia coli): 250 µg/mL (≈ 515 µM)
MIC (Listeria monocytogenes): 250 µg/mL (≈ 515 µM)
MIC (Staphylococcus aureus): 250 µg/mL (≈ 515 µM)

Reference: ChEMBL document CHEMBL3124777, “Synthesis and biological evaluation of thiazoline derivatives as new antimicrobial and anticancer agents” (Eur J Med Chem, 2014)
